In patent US6251854A, “N-methyl-d-aspartate receptor channel blockers and method for identifying such” (priority 1999, dated 2001):
“Also recorded” adds a separate entry of the source. Where a name gives a salt, the structure may show the parent alone. Read-outs that look alike come from different tables or passages of the source. Non-standard residues stand in square brackets, D forms with d. Residues, ends and D or L forms follow the SMILES beside them.

What was measured:
[1] = target: T1, human NR1-NR2A NMDA receptor subunits (Homo sapiens, UniProt Q05586+Q12879); assay: amphibian oocyte current blockade assay (agonist-evoked currents); format: cell-based; details: for potency rank as NMDA blocker (FIG. 1): unacetylated peptides; for selectivity for NMDA receptor channels: versus non-NMDA glutamate receptors
T1 construct: expressed in transfected cells; host or cells: Xenopus laevis oocytes
Experimental: Briefly, in the amphibian oocyte current blockade assay, human NMDA receptors are expressed in the oocytes. The receptors are stimulated in the cells by NMDA agonists. Agonist-induced current is the control against which current blockade levels achieved by incubating the oocytes with candidate NMDA blockers are measured.
(A) NMDA specific receptor channel blocking peptides ("NMDA blockers") were identified by screening synthetic combinatorial libraries (SCL) (see e.g., the library and peptide synthesis methods described in Ostresh, et al., Meth Enzymol (1996) 267:220-34, incorporated herein by reference) and assaying for blockade of agonist-evoked currents by the human NR1-NR2A NMDA receptor subunits expressed in amphibian (Xenopus laevis) oocytes (see, for example, the assay method described in Ferrer-Monteil and Montal, METHODS:A Companion to Methods in Enzymology (1994) 6:60-68, incorporated herein by reference).
(D) The compounds prepared in part (B) above were examined for activity against human brain NMDA receptors (composed of NR1 and NR2A subunits) expressed in oocytes. Ionic currents were activated by 200 μM L-glutamate (L-GIu) 20 μM glycine (Gly), at a holding potential Vh =[…]. Ba^2+ /flufenamic Ringer solution was supplemented with agonist and compounds of the invention, and blockade activity determined for each compound.
An example of how the assay method is performed follows, with reference to FIG. 5.

[2] = system: cultured hippocampal neurons; assay: hippocampal neuronal cell death model (NMDA excitotoxicity); format: cell-based, mammalian; details: neurons exposed to 200 μM NMDA for 20 minutes (FIG. 3)
Text: In addition to approved clinical trials of the inventive compounds in humans, their efficacy can be confirmed in various known animal models for cerebral impairments associated with NMDA receptor pathology, such as the rat ischemia model (e.g., Seif, et al., Eur J Pharmacol (1990) 185:19-24 and Block and Schwara, Neurosci Lett (1996) 208:41-44). Useful in vitro models for testing neuroprotective drug effects in cerebral neuronal cells are also known and include the chick embryo hypoxia model (e.g., Krieglstein, et al., J Pharmacol Meth (1988) 20:39-46) and the mammalian hippocampal neuronal system in which the inventive compounds were tested (e.g., Schinder, et al., supra). These references are each incorporated by reference to illustrate knowledge in the art concerning models of cerebral dysfunction. Those of ordinary skill in the art will be familiar with, or can readily ascertain, other suitable models for use in testing the compounds of the invention.
Testing of the NMDA blockers of the invention in a hippocampal cell model for neurodysfunction (using the method described in Schinder, et al., J Neurosci (1996) 16:6125-33, incorporated herein by reference) yielded surprising results. Specifically, the NMDA blockers of the invention exert a substantial protective effect against cell death induced by exposure of cultured hippocampal neurons to glutamate agonists in the described model of neuronal cell death due to NMDA receptor dysfunction. In this model, neurons exposed to 200 μM NMDA for 20 minutes display extensive death that can be prevented by open channel blockers such as MK-801 or memantine (FIG. 3). This in vitro paradigm of excitotoxicity provides an assay of neuroprotection (see e.g., Schinder et al., supra and Deshpande, et al., Arch Toxicol, 69:384-390).

[3] = target: T2, AMPA-receptor subunit GluR1 (Homo sapiens, UniProt P42261); assay: current blockade at non-NMDA glutamate receptor channels in amphibian oocytes; format: cell-based
T2 construct: expressed in transfected cells; host or cells: amphibian oocytes
Text: FIG. 1 is a bar graph which depicts the extent of current blockade achieved by various peptides of the invention acting on NMDA receptors ("NMDAR", solid bars) and glutamate receptors of the AMPA-receptor subunit GluR1 type ("GluR1", shaded bars) in amphibian oocytes. Each tested peptide is identified by sequence and test number along the bottom axis of the graph. Current blockade is expressed as a function of the extent of current reduction as compared to current produced in control amphibian oocytes.
(B) To examine the specificity of the blockade activity, the activity of the peptides on glutamate receptor channels of the non-NMDA subtype, specifically, the AMPA-receptor subunit GluR1, was tested.

[4] = Table 2, bicyclic compounds, 200 μM L-glutamate 20 μM glycine, Vh = −80 mV, blocked response 1-(Icmpd/Iagonist), read-out: IC50 (μM) Inhibitory Concentrations

T2 sequence (P42261 19-906): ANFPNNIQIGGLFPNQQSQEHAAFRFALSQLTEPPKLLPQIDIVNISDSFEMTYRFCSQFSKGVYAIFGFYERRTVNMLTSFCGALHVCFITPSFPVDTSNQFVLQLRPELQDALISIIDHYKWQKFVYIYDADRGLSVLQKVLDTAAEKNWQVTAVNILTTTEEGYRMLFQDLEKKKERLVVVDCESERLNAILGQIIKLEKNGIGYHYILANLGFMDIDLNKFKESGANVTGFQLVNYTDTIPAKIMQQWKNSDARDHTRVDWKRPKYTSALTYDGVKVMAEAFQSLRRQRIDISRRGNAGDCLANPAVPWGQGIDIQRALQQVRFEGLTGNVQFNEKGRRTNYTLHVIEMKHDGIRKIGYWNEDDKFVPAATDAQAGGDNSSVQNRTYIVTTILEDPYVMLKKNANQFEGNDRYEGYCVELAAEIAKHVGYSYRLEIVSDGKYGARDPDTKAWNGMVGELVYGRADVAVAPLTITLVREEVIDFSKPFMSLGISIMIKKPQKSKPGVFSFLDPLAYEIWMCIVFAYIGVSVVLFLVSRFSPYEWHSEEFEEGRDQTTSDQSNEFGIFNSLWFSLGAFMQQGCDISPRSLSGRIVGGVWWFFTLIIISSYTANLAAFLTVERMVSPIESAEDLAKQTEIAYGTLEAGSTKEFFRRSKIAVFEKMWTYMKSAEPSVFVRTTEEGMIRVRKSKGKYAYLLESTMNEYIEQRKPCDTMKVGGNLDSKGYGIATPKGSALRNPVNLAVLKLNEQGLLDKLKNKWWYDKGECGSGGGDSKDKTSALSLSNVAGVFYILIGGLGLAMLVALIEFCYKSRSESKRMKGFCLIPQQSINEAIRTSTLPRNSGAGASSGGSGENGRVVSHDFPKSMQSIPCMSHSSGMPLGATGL
T1 sequence (Q12879 23-1464, other chains not shown): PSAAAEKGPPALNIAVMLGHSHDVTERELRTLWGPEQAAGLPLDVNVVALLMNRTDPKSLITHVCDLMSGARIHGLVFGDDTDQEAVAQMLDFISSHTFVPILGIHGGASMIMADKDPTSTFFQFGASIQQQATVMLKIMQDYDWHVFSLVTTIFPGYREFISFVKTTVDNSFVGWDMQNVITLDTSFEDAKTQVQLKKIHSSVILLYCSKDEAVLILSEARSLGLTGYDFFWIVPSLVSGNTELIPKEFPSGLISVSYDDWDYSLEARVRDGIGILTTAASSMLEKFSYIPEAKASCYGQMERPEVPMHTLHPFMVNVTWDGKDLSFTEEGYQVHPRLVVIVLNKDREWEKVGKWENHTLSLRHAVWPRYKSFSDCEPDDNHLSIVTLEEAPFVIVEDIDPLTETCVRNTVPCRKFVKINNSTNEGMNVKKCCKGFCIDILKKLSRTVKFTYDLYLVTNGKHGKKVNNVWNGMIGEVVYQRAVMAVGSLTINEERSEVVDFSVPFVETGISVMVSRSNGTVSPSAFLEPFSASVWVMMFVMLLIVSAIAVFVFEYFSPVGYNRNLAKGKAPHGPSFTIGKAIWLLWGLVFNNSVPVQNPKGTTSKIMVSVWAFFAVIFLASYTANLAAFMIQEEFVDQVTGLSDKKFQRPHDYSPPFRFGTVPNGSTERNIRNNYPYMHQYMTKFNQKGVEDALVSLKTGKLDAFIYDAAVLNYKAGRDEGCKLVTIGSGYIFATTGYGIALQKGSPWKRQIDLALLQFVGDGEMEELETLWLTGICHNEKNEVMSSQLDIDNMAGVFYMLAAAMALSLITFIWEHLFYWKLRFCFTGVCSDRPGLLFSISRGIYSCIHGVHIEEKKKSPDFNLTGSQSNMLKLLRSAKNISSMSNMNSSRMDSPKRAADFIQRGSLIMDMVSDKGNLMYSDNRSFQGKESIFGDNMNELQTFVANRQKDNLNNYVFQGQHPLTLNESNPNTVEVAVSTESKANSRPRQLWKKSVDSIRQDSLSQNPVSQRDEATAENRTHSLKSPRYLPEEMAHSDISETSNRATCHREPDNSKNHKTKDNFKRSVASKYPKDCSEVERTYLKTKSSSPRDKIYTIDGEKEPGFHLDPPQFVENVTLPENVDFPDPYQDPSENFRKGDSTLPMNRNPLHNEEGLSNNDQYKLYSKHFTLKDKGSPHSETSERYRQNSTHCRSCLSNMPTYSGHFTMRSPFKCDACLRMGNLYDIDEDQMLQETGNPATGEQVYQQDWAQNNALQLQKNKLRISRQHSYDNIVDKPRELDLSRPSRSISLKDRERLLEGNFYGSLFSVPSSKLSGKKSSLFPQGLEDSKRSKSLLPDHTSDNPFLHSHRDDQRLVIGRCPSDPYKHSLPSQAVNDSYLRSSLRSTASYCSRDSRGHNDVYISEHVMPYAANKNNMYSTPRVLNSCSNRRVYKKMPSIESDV

“2H-3-(3-guanidinopropyl)-7-(3-guanidinopropyl)-8-(3-methylbutyl)diazolidine[1,2-b]dihydroimidazole” showed an IC50 [1, 4] of 4.2 µM.
With “2H-3-(3-guanidinopropyl)-7-(but-2-yl)-8-(3-methyl-butyl)diazolidine[1,2-b]dihydroimidazole” the IC50 [1, 4] was 11.8 µM.
Work on “2H-3-(4-fluorobenzyl)-7-(3-guanidinopropyl)-8-(3-methylbutyl)diazolidine[1,2-b]dihydroimidazole” yielded an IC50 [1, 4] of 6.1 µM.
“2H-3-(4-fluorobenzyl)-7-(but-2-yl)-8-(3-methyl-butyl)diazolidine[1,2-b]dihydroimidazole” gave an IC50 [1, 4] of 1.2 µM.
“2H-3-(4-fluorobenzyl)-7-(t-butyl)-8-(3-methyl-butyl)diazolidine[1,2-b]dihydroimidazole” showed an IC50 [1, 4] of 2.2 µM.
In the case of `C[C@]12N[C@H](Cc3ccccc31)c1ccccc12` [MK-801, reference compound], the “protection of neurons from excitotoxic cell death” value (“protection of neurons” for short) [2] is reported as “prevented”.
`N=C(N)NCCC[C@H](NC(=O)[C@H](CCCNC(=N)N)NC(=O)[C@H](CCCNC(=N)N)NC(=O)[C@H](CCCNC(=N)N)NC(=O)[C@H](CCCNC(=N)N)NC(=O)[C@@H](N)CCCNC(=N)N)C(N)=O` [RRRRRR] was tested, and the “protection of neurons” value [2] was “protected neurons from excitotoxic cell death” and the IC50 [1] was 0.5 ± 0.1 µM.
`CC12CC3CC(C)(C1)CC(N)(C3)C2` [memantine, 1-amino-3,5-dimethyladmantane hydrochloride, reference compound] was tested, and the “protection of neurons” value [2] was “prevented”.
In the case of `CC(C)C[C@@H](NC(=O)[C@@H](Cc1ccc(O)cc1)NC(=O)[C@H](N)CCCNC(=N)N)C(=O)N[C@H](Cc1ccccc1)C(=O)N[C@H](CCCNC(=N)N)C(=O)N[C@H](CCCNC(=N)N)C(N)=O` [rylfrr] (H-[dR][dY][dL][dF][dR][dR]-NH2), the IC50 [1] is reported as 27 ± 4 µM.
For “H-RRRRWW-NH2 (C-terminus assumed) [RRRRWW]”, the “protection of neurons” value [2] was “prevented neuronal cell death”, the IC50 [1] was 0.1 µM and the “current blockade at a steady concentration compared with the same concentration of memantine (FIG. 2)” value [1] was “comparable”. The “potency rank as NMDA blocker (FIG. 1)” value [1] was “most potent”, the “selectivity for NMDA receptor channels” value [1] was “selective for NMDA receptor channels” and the “blockade effect on non-NMDA glutamate receptors” value [3] was “no blockade effect”.
With RRCRWW the “protection of neurons” value [2] was “prevented neuronal cell death”, the “selectivity for NMDA receptor channels” value [1] was “selective for NMDA receptor channels” and the “blockade effect on non-NMDA glutamate receptors” value [3] was “no blockade effect”.
In the case of RRRCRW, the “potency rank as NMDA blocker (FIG. 1)” value [1] is reported as “most potent”.
For RRRCWW, the “sensitivity of AMPA receptor channels to the peptides (FIG. 1)” value ([3]; set result: weakly sensitive) was “excepting”.
For RRRRRW, the “protection of neurons” value [2] was “prevented neuronal cell death; also recorded: protected neurons from excitotoxic cell death”, the “current blockade at a steady concentration compared with the same concentration of memantine (FIG. 2)” value [1] was “comparable” and the “effect on evoked inward currents upon perfusion (FIG. 5)” value ([1]; 200 μM L-glutamate/20 μM glycine) was “sharply attenuated”. The “increase of blockade efficacy by a C-terminal tryptophan (Ki RRRRRR vs RRRRRW)” value ([1]; compared with RRRRRR (#111)) was 1000 fold, the “potency rank as NMDA blocker (FIG. 1)” value [1] was “most potent” and the “selectivity for NMDA receptor channels” value [1] was “selective for NMDA receptor channels”. The “blockade effect on non-NMDA glutamate receptors” value [3] was “no blockade effect”.
With RRRRW the “protection of neurons” value [2] was “protected neurons from excitotoxic cell death”.
